The values below come from US20260094676A1, “METHOD AND APPARATUS FOR PREDICTING DRUG BIOAVAILABILITY” (LIVERPOOL JOHN MOORES UNIVERSITY, priority 2022, published 2026).

Structures are written as SMILES. Where a name gives a salt, the structure may show the parent alone. Read-outs that look alike come from different tables or passages of the source.

Data set [1] in a line: Reversed phase TLC lipophilicity measurement on Leucaena oil device (LOD). The conditions noted are these: for ICHI (isocratic chromatographic hydrophobicity index): LOD R1 to R10, methanol in water mobile phase. The method, then: Silica gel GF254 plates (5×10 cm) are successively developed by ascending development in the oil solution. Ten consecutive runs were carried out in each of the six tanks set up to prepare the Leucaena oil device (LOD).
The plates were air-dried at room temperature and the plates were developed in saturated development tanks containing 10 mL of the mobile phase. The plates were developed over a path of 7 cm and allowed to air-dry before visualization under UV light at 254 nm. The retardation factor (Rf) was then measured. The development was performed in duplicate.
Rm was computed by the equation: […]
The linear regression of Rm versus organic modifier fraction is governed by the Soczewinski Wachmeister equation: […]
The mobile phase used consisted of various concentrations of methanol in 0.1N HCl and Phosphate buffer pH 6.8.
(§1) Data analysis was done as previously described, Rf was transformed to Rm and linear regression analysis implemented to determine the lipophilicity parameter, ICHI.
(§2) Data analysis was performed as described earlier under data analysis in previous sections. Rf is transformed to Rm and linear regression of Rm versus methanol fraction produces linear regression parameters that provide the lipophilicity metric.

For data set [2] the following is noted: humans, cited from earlier work.
For data set [3] the following is noted: dogs, cited from earlier work.
For data set [4] the following is noted: concomitant intake of kolanut with halofantrine; cited from earlier work.
For data set [5] the following is noted: cited from earlier work.
How the values of data set [6] were obtained:
The mobile phase used consisted of various concentrations of methanol in 0.1N HCl and phosphate buffer pH 6.8.
as §1, §2

The conditions of data set [7]: 48 h.
The mark [8] stands for this setting: halofantrine administered postprandially.

Take `O=C(O)c1cn(C2CC2)c2cc(N3CCNCC3)c(F)cc2c1=O` [ciprofloxacin hydrochloride]: the Qsi entry in data set [1] (LOD, combination with model Garcinia bioflavonoid) is “about 10”.
For the compound `CCCCNCCC(O)c1cc2c(Cl)cc(Cl)cc2c2cc(C(F)(F)F)ccc12` (stereo not drawn) [desbutylhalofantrine], the “decrease of proportional formation of desbutyl metabolite” value in data set [2] (setting [8]) is reported as 2.4 fold. In data set [3] (setting [8]), the “decrease of proportional formation of desbutyl metabolite” value is 6.8 fold. In addition, in data set [4], the “Cmax, effect of concomitant kolanut” value is on record as “significantly decreased”; the “t1/2, effect of concomitant kolanut” value is reported as “no significant effect”; the “tmax, effect of concomitant kolanut” value is “no significant effect”.
Consider `CCCCN(CCCC)CCC(O)c1cc2c(Cl)cc(Cl)cc2c2cc(C(F)(F)F)ccc12` (stereo not drawn) [halofantrine], for which the “increase of oral bioavailability” value in data set [2] (administered postprandially) was 3 fold; in data set [3] (administered postprandially), 12 fold. The “plasma Hfm/Hf AUC (0-72 h) ratio” value in data set [5] (fasted oral administration of Hf with ketoconazole) is on record as “less than 0.05”; in data set [5] (fasted oral administration of Hf without ketoconazole) it was 0.56. For the same compound, in data set [4], the “Cmax, effect of concomitant kolanut” value is reported as “significantly decreased”. Besides, in data set [4], the “t1/2, effect of concomitant kolanut” value is “no significant effect”. Also, in data set [4], the “tmax, effect of concomitant kolanut” value is reported as “no significant effect”. For the same compound, the “Solubility interaction quotient (Qsi), fold more lipophilic than caffeine” value stood at 24 fold in data set [1] (LOD, halofantrine versus caffeine) and 2 fold in data set [6] (ODS, halofantrine versus caffeine). In data set [1] (LOD, ketoconazole and halofantrine), this compound had a Qsi of 1.42.
`CC(=O)N1CCN(c2ccc(OCC3COC(Cn4ccnc4)(c4ccc(Cl)cc4Cl)O3)cc2)CC1` (stereo not drawn) [ketoconazole]: the “critical point ('critical micellar concentration') of ketoconazole for halofantrine solubility” value in data set [7] is given as 0.015%. Besides, the “Lipophilicity classification based on ICHI” value in data set [1] is recorded as “amphiphilic”; in data set [6] it was “lipophilic”. Further, the “ICHI, mean value” in data set [1] (LOD, mean over 0.1N HCl and phosphate buffer pH 6.8 mobile phases) is 0.70; in data set [6] (ODS, mean over 0.1N HCl and phosphate buffer pH 6.8 mobile phases), 0.86.
For the compound `COc1ccc2cc(CCC(C)=O)ccc2c1` [nabumetone], in data set [1], the “ICHI (isocratic chromatographic hydrophobicity index)” value is given as 0.61-0.63.
Consider `Oc1cccc2ccccc12` [α-naphthol], for which the “ICHI (isocratic chromatographic hydrophobicity index)” value in data set [1] is given as 0.52-0.54.
Still for that read-out and setting: the same measure for `Oc1ccc2ccccc2c1` [β-naphthol]: 0.46-0.48.
